# From patent EP0364581A1, “METHOD OF STERILIZING PLANT POLLEN” (VSESOJUZNY NAUCHNO-ISSLEDOVATELSKY INST. SELSKOKHOZYAISTV. …, priority 1988, dated 1989)
# Experiments:
# Experiment in all cases: field test of gametocidal activity (sterilisation of anthers)
# [1] = system: Winterweizens Sorte Priboi; format: in vivo, Winterweizen; conditions: V. und VI. Periode, 2%ige wäßrige Emulsion, 12 kg/ha; for Prozentsatz des Ansetzens der Körner bei freier Bestäubung: control = 100
# Excerpt: (§1) Die gametozide Aktivität der erfindungsgemäßen Sterilisationsmittel war in Feldversuch in verschiedenen bodenklimatischen Zonen mit Teilstücken von 10 m^2 Größe in drei-- bis viermaliger Wiederholung nachgewiesen. Jedes Sterilisationsmittel wurde mindestens 5 Jahre lang geprüft.
# (§2) Die Entwicklung der Perioden der Organogenese wird zytologisch überwacht. Die Behandlung von Pflanzen mit dem Sterilisationsmittel erfolgt am Anfang der fünften Periode der Organogenese nach Kupermann.
# (§3) Mit dem Ahrenschieben verwirklicht man die Isolierung von Hauptähren und anderen Stockwerken in Pergamentbeuteln. Bei Weizen und Tritikale werden Einzelisolatoren verwendet. Bei Roggen schließt man je 1 Ähre von 5 bis 7 verschiedenen nebeneinander befindlichen Pflanzen in einen gemeinsamen Isolator ein. Bei Hirse wird jede Rispe getrennt isoliert. Der Sterilitätsprozentsatz (X) für Weizen, Roggen, Tritikale und Hirse wird nach der Formel [formula]
# (§4) Samen von unbehandelten Kontrollpflanzen ermittelt.
# (§5) Die Kornzahl in nicht isolierten Ähren von Kontrollpflanzen wird bedingt für 100% Ansetzen bei freier Bestäubung angenommen.
# (§6) Um zuverlässige Angaben zu erhalten, verwendet man 20 bis 25 Isolatoren jeder Wiederholung für Weizen und Tritikale, 10 bis 15 Isolatoren jeder Wiederholung für Roggen und Hirse.
# Pflanzen des Winterweizens Sorte Priboi werden in der V. und VI. Periode der Organogenese (nach Kupermann) mit einer 2%igen wäßrigen Emulsion von Kaliumsalz der 2-Methyl--3-zyklohexenkarbonsäure, 2-Methyl-3-zyklohexenkarbonsäure- methylester, Pnthalsäuredipropylester, Phthalsäurediisobutylester behandelt. Die Emulsion enthält 0,01 Masse% Dimethylsulfoxid und 0,1 Masse% C12-C14 -Kalziumalkylbenzolsulfonat. Der Verbrauch an Präparat beträgt 12 kg/ha. Als Kontrolle dienen Pflanzen, behandelt mit einem Verdünner ohne Sterilisationsmittel.
# [2] = system: Winterweizens Sorte Kharkovskaya 81; format: in vivo, Winterweizen; conditions: V. und VI. Periode, 2%ige wäßrige Emulsion, 12 kg/ha; for Prozentsatz des Ansetzens der Körner bei freier Bestäubung: control = 100
# Excerpt: as §1, §2, §3, §4, §5, §6
# Pflanzen des Winterweizens Sorte Kharkovskaya 81 werden in der V. und VI. Periode der Organogenese (nach Kupermann) mit einer 2%igen wäßrigen Emulsion von Natriumsalz der 2-Methyl-3-zyklohexenkarbonsäure, Phthalsäuredihexylester, Ammoniumsalz der 2-Methyl-3-zyklohexenkarbon- säure, Phthalsäuredibutylester, Phthalsäurediallylester behandelt. Die Emulsion enthält 0,01 Masse% Dodezylsulfat und 0,1 Masse% C12-C14 -Kalziumalkylbenzolsulfonat. Der Verbrauch an Präparat beträgt 12 kg/ha.
# Die Prüfergebnisse sind in der Tabelle 4 angeführt. Als Kontrolle dienten Pflanzen, behandelt ähnlich wie in Beispiel 1.
# [3] = system: Sommerweizens Sorte Botanicheskaya 4; format: in vivo, Sommerweizen; conditions: V. Periode, 1%ige wäßrige Emulsion, 8 kg/ha; for Prozentsatz des Ansetzens der Körner bei freier Bestäubung: control = 100
# Excerpt: as §1, §2, §3, §4, §5, §6
# Pflanzen des Sommerweizens Sorte Botanicheskaya 4 werden in der V. Periode der Organogenese (nach kupermann) mit einer l%igen wäßrigen Emulsion von Phthalsäuredibutylester, Phthalsauredipropylester, Natriumsalz der 2-Methyl-3-zyklo- hexenkarbonsäure, 2-Methyl-3-zyklohexenkarbonsäuremethyl- ester behandelt. Die Emulsion enthalt 0,01 Masse% Tetrahydrofuran und 0,1 Masse% C12-C14-Kalziumalkylbenzolsulfonat. Der Verbrauch an Präparat beträgt 8 kg/ha. Als Kontrolle dienen Pflanzen, behandelt mit einem Verdünner ohne Sterilisationsmittel
# [4] = system: Tritikale der Sorte PRAG-109; format: in vivo; conditions: V. Periode, 1%ige wäßrige Emulsion, 10 kg/ha
# Excerpt: as §1, §2, §3, §4, §5, §6
# Pflanzen Tritikale der Sorte PRAG-109 werden in der V. Periode der Organogenese (nach Kupermann) mit einer 1%igen wäßrigen Emulsion von Phthalsäuredibutylester, Phthalsäurediäthylester, Phthalsäuredihexylester, Phthalsäurediisobutylester, Kaliumsalz der 2-Methyl-3-zyklohexenkarbon- säure, 2-Methyl-3-zyklohexenkarbonsäuremethylester behandelt. Die Emulsion enthält 0,01 Masse% Dimethylsulfoxid und 0,1 Masse% C12C14- Kalziumalkylbenzolsulfonat. Der Verbrauch an Präparat beträgt 10 kg/ha. Als Kontrolle dienen Pflanzen, behandelt mit einem Verdünner ohne Sterilisationsmittel. […]
# In allen Fällen dienen als Kontrolle Pflanzen, behandelt mit einem Verdünner ohne Sterilisationsmittel. Die Prüfergebnisse sind in der Tabelle 20 angeführt. […] Periode der Organogenese erhalten.
# [5] = system: Tritikale Sorte Amfidiploid 206; format: in vivo; conditions: V. Periode, 1%ige wäßrige Emulsion, 6 kg/ha; for Prozentsatz des Ansetzens bei freier Bestäubung: control = 100
# Excerpt: as §1, §2, §3, §4, §5, §6
# Pflanzen Tritikale Sorte Amfidiploid 206 werden in der V.Periode der Organogenese (nach Kupermann) mit einer l%igen wäßrigen Emulsion von Phthalsäuredipropylester, Phthalsäurediisobutylester, Kaliumsalz der 2-Methyl-3-zyklohexenkarbon- säure, 2-Methyl-3-zyklohexenkarbonsäuremethylester, Ammoniumsalz der 2-Methyl-3-zyklohexenkarbonsäure behandelt. Die Emulsion enthält 0,01 Masse% Tetrahydrofuran und 0,1 Masse% C12-C14-Kalziumalkylbenzolsulfonat. Der Verbrauch an Präparat beträgt 6 kg/ha. Als Kontrolle dienen Pflanzen, behandelt mit einem Verdünner ohne Sterilisationsmittel.
# [6] = system: tetraploidem Roggen Sorte Ukrainskaya; format: in vivo; conditions: V. Periode, wäßrige Emulsion (concentration not given), 6 kg/ha; for Prozentsatz des Ansetzens der Körner bei freier Bestäubung: control = 100
# Excerpt: as §1, §2, §3, §4, §5, §6
# Pflanzen von tetraploidem Roggen Sorte Ukrainskaya werden in der V. Periode der Organogenese (nach Kupermann) mit einer wäßrigen Emulsion von Ammoniumsalz der 2-Methyl-3--zyklohexenkarbonsäure, Phthalsäurediäthylester, Kaliumsalz der Benzoesäure, Phthalsäurediisobutylester behandelt. Die Emulsion enthält 0,01 Masse% Dimethylformamid und 0,1 Masse% C12-C14-Kalziumalkylbenzolsulfonat. Der Verbrauch an Präparat beträgt 6 kg/ha. Als Kontrolle dienen Pflanzen, behandelt mit einem Verdünner ohne Sterilisationsmittel. Die Prüfergebnisse sind in der Tabelle 11 angeführt. […] Periode der Organogenese erhalten.
structure (smiles),measurement,setting,value
"CC1C=CCCC1C(=O)[O-].[K+] (stereo not drawn) [Beispiel 14, Kaliumsalz der 2-Methyl--3-zyklohexenkarbonsäure]",Kornzahl der Ähre bei freier Bestäubung,[1],"35,1"
same,Kornzahl der Ähre im Isolator,[1],"0,0"
same,Prozentsatz der Sterilität,[1],"100,0%"
same,Prozentsatz des Ansetzens der Körner bei freier Bestäubung,[1],"95,4%"
"COC(=O)C1CCC=CC1C (stereo not drawn) [Beispiel 15, 2-Methyl-3-zyklohexenkarbonsäure-methylester]",Kornzahl der Ähre bei freier Bestäubung,[1],"34,8"
same,Kornzahl der Ähre im Isolator,[1],"0,0"
same,Prozentsatz der Sterilität,[1],"100,0%"
same,Prozentsatz des Ansetzens der Körner bei freier Bestäubung,[1],"94,6%"
"CCCOC(=O)c1ccccc1C(=O)OCCC [Beispiel 16, Pnthalsäuredipropylester]",Kornzahl der Ähre bei freier Bestäubung,[1],"32,6"
same,Kornzahl der Ähre im Isolator,[1],"5,6"
same,Prozentsatz der Sterilität,[1],"82,6%"
same,Prozentsatz des Ansetzens der Körner bei freier Bestäubung,[1],"88,6%"
"CC(C)COC(=O)c1ccccc1C(=O)OCC(C)C [Beispiel 17, Phthalsäurediisobutylester]",Kornzahl der Ähre bei freier Bestäubung,[1],"33,7"
same,Kornzahl der Ähre im Isolator,[1],"0,0"
same,Prozentsatz der Sterilität,[1],"100,0%"
same,Prozentsatz des Ansetzens der Körner bei freier Bestäubung,[1],"91,6%"
"CC1C=CCCC1C(=O)O.N (stereo not drawn) [Beispiel 20, Ammoniumsalz der 2-Methyl-3-zyklohexenkarbon-säure]",Kornzahl der Ähre bei freier Bestäubung,[2],"31,7"
same,Kornzahl der Ähre im Isolator,[2],"0,0"
same,Prozentsatz der Sterilität,[2],"100,0%"
same,Prozentsatz des Ansetzens der Körner bei freier Bestäubung,[2],"93,5%"
"CCCCOC(=O)c1ccccc1C(=O)OCCCC [Beispiel 21, Phthalsäuredibutylester]",Kornzahl der Ähre bei freier Bestäubung,[2],"28,6"
same,Kornzahl der Ähre im Isolator,[2],"0,0"
same,Prozentsatz der Sterilität,[2],"100,0%"
same,Prozentsatz des Ansetzens der Körner bei freier Bestäubung,[2],"84,4%"
"C=CCOC(=O)c1ccccc1C(=O)OCC=C [Beispiel 22, Phthalsäurediallylester]",Kornzahl der Ähre bei freier Bestäubung,[2],"30,6"
same,Kornzahl der Ähre im Isolator,[2],"3,1"
same,Prozentsatz der Sterilität,[2],"90,3%"
same,Prozentsatz des Ansetzens der Körner bei freier Bestäubung,[2],"90,3%"
"CCCCOC(=O)c1ccccc1C(=O)OCCCC [Beispiel 30, Phthalsäuredibutylester]",Kornzahl der Ähre bei freier Bestäubung,[3],"30,6"
same,Kornzahl der Ähre im Isolator,[3],"0,2"
same,Prozentsatz der Sterilität,[3],"99,4%"
same,Prozentsatz des Ansetzens der Körner bei freier Bestäubung,[3],"81,8%"
same,Kornzahl der Ähre bei freier Bestäubung,[4],"66,8"
same,Kornzahl der Ähre im Isolator,[4],"1,0"
same,Prozentsatz der Sterilität,[4],"98,4%"
same,Prozentsatz des Ansetzens der Körner bei freier Bestäubung,[4]; control = 100,"96,8%"
"CCCOC(=O)c1ccccc1C(=O)OCCC [Beispiel 31, Phthalsauredipropylester]",Kornzahl der Ähre bei freier Bestäubung,[3],"31,5"
same,Kornzahl der Ähre im Isolator,[3],"0,5"
same,Prozentsatz der Sterilität,[3],"98,5%"
same,Prozentsatz des Ansetzens der Körner bei freier Bestäubung,[3],"84,2%"
"CC1C=CCCC1C(=O)[O-].[Na+] (stereo not drawn) [Beispiel 32, Natriumsalz der 2-Methyl-3-zyklo-hexenkarbonsäure]",Kornzahl der Ähre bei freier Bestäubung,[3],"32,9"
same,Kornzahl der Ähre im Isolator,[3],"1,0"
same,Prozentsatz der Sterilität,[3],"97,0%"
same,Prozentsatz des Ansetzens der Körner bei freier Bestäubung,[3],"88,0%"
"COC(=O)C1CCC=CC1C (stereo not drawn) [Beispiel 33, 2-Methyl-3-zyklohexenkarbonsäuremethyl-ester]",Kornzahl der Ähre bei freier Bestäubung,[3],"34,2"
same,Kornzahl der Ähre im Isolator,[3],"0,0"
same,Prozentsatz der Sterilität,[3],"100,0%"
same,Prozentsatz des Ansetzens der Körner bei freier Bestäubung,[3],"91,4%"
"CCCOC(=O)c1ccccc1C(=O)OCCC [Beispiel 43, Phthalsäuredipropylester]",Kornzahl der Ähre bei freier Bestäubung,[5],"31,8"
same,Kornzahl der Ähre im Isolator,[5],"0,0"
same,Prozentsatz der Sterilität,[5],"100,0%"
same,Prozentsatz des Ansetzens bei freier Bestäubung,[5],"87,3%"
"CC(C)COC(=O)c1ccccc1C(=O)OCC(C)C [Beispiel 44, Phthalsäurediisobutylester]",Kornzahl der Ähre bei freier Bestäubung,[5],"32,5"
same,Kornzahl der Ähre im Isolator,[5],"0,0"
same,Prozentsatz der Sterilität,[5],"100,0%"
same,Prozentsatz des Ansetzens bei freier Bestäubung,[5],"89,3%"
"CC1C=CCCC1C(=O)O (stereo not drawn) [Beispiel 45, Kaliumsalz der 2-Methyl-3-zyklohexenkarbon-säure]",Kornzahl der Ähre bei freier Bestäubung,[5],"31,8"
same,Kornzahl der Ähre im Isolator,[5],"0,1"
same,Prozentsatz der Sterilität,[5],"99,7%"
same,Prozentsatz des Ansetzens bei freier Bestäubung,[5],"87,3%"
"COC(=O)C1CCC=CC1C (stereo not drawn) [Beispiel 46, 2-Methyl-3-zyklohexenkarbonsäuremethylester]",Kornzahl der Ähre bei freier Bestäubung,[5],"32,6"
same,Kornzahl der Ähre im Isolator,[5],"0,0"
same,Prozentsatz der Sterilität,[5],"100,0%"
same,Prozentsatz des Ansetzens bei freier Bestäubung,[5],"89,6%"
"CC1C=CCCC1C(=O)O (stereo not drawn) [Beispiel 47, Ammoniumsalz der 2-Methyl-3-zyklohexenkarbonsäure]",Kornzahl der Ähre bei freier Bestäubung,[5],"37,5"
same,Kornzahl der Ähre im Isolator,[5],"6,8"
same,Prozentsatz der Sterilität,[5],"79,7%"
same,Prozentsatz des Ansetzens bei freier Bestäubung,[5],"103,1%"
"CC1C=CCCC1C(=O)O (stereo not drawn) [Beispiel 56, Ammoniumsalz der 2-Methyl-3--zyklohexenkarbonsäure]",Kornzahl der Ähre bei freier Bestäubung,[6],"32,1"
same,Kornzahl der Ähre im Isolator,[6],"0,0"
same,Prozentsatz der Sterilität,[6],"100,0%"
same,Prozentsatz des Ansetzens der Körner bei freier Bestäubung,[6],"87,2%"
"CCOC(=O)c1ccccc1C(=O)OCC [Beispiel 57, Phthalsäurediäthylester]",Kornzahl der Ähre bei freier Bestäubung,[6],"30,7"
same,Kornzahl der Ähre im Isolator,[6],"0,0"
same,Prozentsatz der Sterilität,[6],"100,0%"
same,Prozentsatz des Ansetzens der Körner bei freier Bestäubung,[6],"83,4%"
"O=C(O)c1ccccc1 [Beispiel 58, Kaliumsalz der Benzoesäure]",Kornzahl der Ähre bei freier Bestäubung,[6],"35,8"
same,Kornzahl der Ähre im Isolator,[6],"4,2"
same,Prozentsatz der Sterilität,[6],"85,0%"
same,Prozentsatz des Ansetzens der Körner bei freier Bestäubung,[6],"97,3%"
"CC(C)COC(=O)c1ccccc1C(=O)OCC(C)C [Beispiel 59, Phthalsäurediisobutylester]",Kornzahl der Ähre bei freier Bestäubung,[6],"34,7"
same,Kornzahl der Ähre im Isolator,[6],"0,0"
same,Prozentsatz der Sterilität,[6],"100,0%"
same,Prozentsatz des Ansetzens der Körner bei freier Bestäubung,[6],"94,2%"
